Experimental data from patent US20120090502A1, “DIS-AZO COMPOUND AND OIL INK AND ELECTROWETTING DISPLAYS COMPRISING THE SAME” (JINTEX CORPORATION LTD., priority 2010, published 2012).

Legend:
Type in all cases: physicochemical
[1] = oil ink performance test: viscosity and surface tension; design: surface tension (dyne/cm^2): unit not given here; conditions: for surface tension (dyne/cm^2): oil ink in dodecane; for viscosity (cp): oil ink: 1.0 g dye dispersed in 10 g dodecane, filtered 0.45 μm
Method: 1.0 g of purified dye (dis-azo compound of the present invention) weighed was dispersed in 10 g of dodecane and then heated to 80° C. and stirred for one hour. After that, the mixture solution was removed to a ultrasonic oscillator and oscillated for one hour and then filtered through 0.45 μm filter to obtain the oil ink of the present invention. […] According to Table 3, ail of the oil ink of the present invention fulfills elementary conditions of oil ink for electrowetting display.

solubility in dodecane = test: solubility in dodecane
[2] = maximum absorption wavelength and molar absorption coefficient in dodecane; conditions: for wavelength (nm)/dodecane: maximum absorption wavelength
[3] = oil ink tested by UV-Vis spectrophotometer; design: FoM / value of a / value of b: scale not given here; conditions: oil ink in dodecane; for FoM: Figure of Merit = ε×C; for full width at half maximum (nm): wavelength range at half height of absorption at λ max
Method: 1.0 g of purified dye (dis-azo compound of the present invention) weighed was dispersed in 10 g of dodecane and then heated to 80° C. and stirred for one hour. After that, the mixture solution was removed to a ultrasonic oscillator and oscillated for one hour and then filtered through 0.45 μm filter to obtain the oil ink of the present invention. The oil ink of the present invention was tested by UV-Vis spectrophotometer. According to Table 3, ail of the oil ink of the present invention fulfills elementary conditions of oil ink for electrowetting display.

| SMILES | surface tension (dyne/cm^2) [1] | viscosity (cp) [1] [cp] | solubility (%) (solubility in dodecane) | ε (molar absorption coefficient) [2] | wavelength (nm)/dodecane [2] [nm] | FoM [3] | full width at half maximum (nm) [3] [nm] | value of L ([3]; hue) | value of a ([3]; hue) | value of b ([3]; hue) |
| --- | --- | --- | --- | --- | --- | --- | --- | --- | --- | --- |
| CCCCCCCCCCc1ccc(N=Nc2ccc(N=Nc3ccc4c5c(cccc35)NC(CC(C)C)(CC(C)C)N4)c3ccccc23)cc1 [D10-C4,4] | 24.8 | 2.55 | 1.23 | 9.95 × 10^3 | 590 | 136 | 320 |  |  |  |
| CCCCCCCCCCc1ccc(N=Nc2ccc(N=Nc3ccc4c5c(cccc35)NC(CC)(CC)N4)c3ccccc23)cc1 [D10-C2,2] | 25.1 | 2.35 | 8.00 | 8.13 × 10^3 | 580 | 779 | 320 | 0.01 | 0.38 | −0.18 |
| CCCCCCCCCCc1ccc(N=Nc2ccc(N=Nc3ccc4c5c(cccc35)NC(C)(CCCC)N4)c3ccccc23)cc1 (racemic) [D10-C1,4] | 23.6 | 2.42 | 2.15 | 9.11 × 10^3 | 560 | 232 | 320 |  |  |  |
| CCCCCCCCc1ccc(N=Nc2ccc(N=Nc3ccc4c5c(cccc35)NC(CC(C)C)(CC(C)C)N4)c3ccccc23)cc1 [D8-C4,4] | 23.5 | 2.33 | 2.96 | 9.50 × 10^3 | 580 | 320 | 300 |  |  |  |
| CCCCCCCCc1ccc(N=Nc2ccc(N=Nc3ccc4c5c(cccc35)NC(CC)(CC)N4)c3ccccc23)cc1 [D8-C2,2] | 23.2 | 2.42 | 6.00 | 7.05 × 10^3 | 580 | 526 | 300 |  |  |  |
| CCCCc1ccc(N=Nc2ccc(N=Nc3ccc4c5c(cccc35)NC(CC(C)C)(CC(C)C)N4)c3ccccc23)cc1 [D4-C4,4] | 24.5 | 2.21 | 4.00 | 3.41 × 10^3 | 560 | 191 | 250 |  |  |  |
